System: OVCAR-3 cells
Assay: imaging-based nuclear count analysis (NCA) in OVCAR-3 cells
Format: cell-based
Conditions: Homo sapiens, 96 h, 4 days, nuclear count with Hoechst 33342, 0.1% DMSO, low control 10 μM AM-5308
Protocol: Test name: imaging-based nuclear count analysis (NCA) in OVCAR-3 cells
• a) The final test concentrations of AM-5308:10000, 3333.3, 1111.1, 370.3, 123.4, 41.1, 13.7, 4.5, 1.5, 0.5 nM. • b) The final test concentrations of the test compound: 10000, 3333.3, 1111.1, 370.3, 123.4, 41.1, 13.7, 4.5, 1.5, 0.5 nM. • c) The cells were cultured in a 37° C., 5% CO2 incubator for 4 days. • d) DMSO concentration was 0.1%. Day 1 Seeding the Cells into a 384-Well Cell Culture Plate • a) When the cell confluence reached 80%-90%, the cells were treated. • b) The cells were resuspended in a medium and then counted and diluted at a desired density. • c) A cell suspension containing appropriate cells was added to the 384-well plate at 30 μL/well: 600 cells/well. […]
High-reading control wells: cells+30 nL DMSO; low-reading control wells: 10 μM AM-5308.
IC50 (nM) was calculated using GraphPad Prism 8 software and the effect-dose curves of the compound were plotted.

`O=C(Nc1cccc2c1nc1n2C2CCC1CC2)c1ccc(NS(=O)(=O)CCO)cc1N1CCC2(CC1)CC2` [Compound 100, 4-(2-hydroxyethanesulfonylamino)-2-(6-azaspiro[2.5]octan-6-yl)-N-(1,2,3,4-tetrahydro-1,4-ethylbenzo[4,5]imidazo[1,2-a]pyridin-6-yl)benzamide] showed an IC50 of 110 nM.
